According to ChEMBL document CHEMBL4732135, “Structural and mechanistic insights into the inhibition of amyloid-β aggregation by Aβ fragment derived synthetic peptides” (Eur J Med Chem, 2021):
The source made the active and inactive calls. The rule behind the calls is not given here. Square brackets hold non-standard residues; d marks the D form. Peptide text beside a SMILES is read from it. ξ: configuration not given here. Oic(3aξ,7aξ) = O=C(O)[C@@H]1CC2CCCCC2N1; Phe(4-F) = N[C@@H](Cc1ccc(F)cc1)C(=O)O; 1Nal = N[C@@H](Cc1cccc2ccccc12)C(=O)O

Tests used:
[1] = molecular target: Amyloid-beta precursor protein (Homo sapiens) (UniProt P05067); assay: Inhibition of amyloid beta (1 to 42) (unknown origin) assessed as reduction in peptide aggregation at 2 uM measured after 24 hrs by thioflavin-T fluorescence assay relative to control
Chain of Amyloid-beta precursor protein (Homo sapiens) (P05067 whole entry): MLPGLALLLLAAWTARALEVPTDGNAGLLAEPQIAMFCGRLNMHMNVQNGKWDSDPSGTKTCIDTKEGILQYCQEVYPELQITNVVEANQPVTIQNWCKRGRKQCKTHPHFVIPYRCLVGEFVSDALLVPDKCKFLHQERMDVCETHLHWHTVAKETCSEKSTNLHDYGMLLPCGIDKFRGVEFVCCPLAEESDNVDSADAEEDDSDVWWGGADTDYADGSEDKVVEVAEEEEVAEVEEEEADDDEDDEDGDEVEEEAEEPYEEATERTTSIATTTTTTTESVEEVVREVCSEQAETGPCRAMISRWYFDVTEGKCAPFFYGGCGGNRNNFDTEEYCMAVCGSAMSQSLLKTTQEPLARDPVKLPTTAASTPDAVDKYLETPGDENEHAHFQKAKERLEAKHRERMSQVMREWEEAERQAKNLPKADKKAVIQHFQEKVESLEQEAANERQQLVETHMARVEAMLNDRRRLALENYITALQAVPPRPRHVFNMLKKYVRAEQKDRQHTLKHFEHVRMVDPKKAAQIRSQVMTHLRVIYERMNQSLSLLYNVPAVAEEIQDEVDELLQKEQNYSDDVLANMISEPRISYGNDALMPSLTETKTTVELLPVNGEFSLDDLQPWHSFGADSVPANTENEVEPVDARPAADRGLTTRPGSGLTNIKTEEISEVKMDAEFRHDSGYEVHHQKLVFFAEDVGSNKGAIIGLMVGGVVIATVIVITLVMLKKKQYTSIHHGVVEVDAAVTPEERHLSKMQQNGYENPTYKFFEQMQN

PC-12 [2] = assay: Cytotoxicity against rat PC-12 cells assessed as reduction in cell viability at 20 uM measured after 6 hrs by MTT assay; type: cell-based; conditions: pc-12, 6 h
PC-12 [3] = assay: Neuroprotective activity against amyloid beta 42-induced toxicity in rat PC-12 cells assessed as cell viability at 2 uM measured after 6 hrs by MTT assay (reference value: 74.05%); type: functional; conditions: read-out: Activity
[4] = Effective permeability of compound in pH 8 PBS buffer by PAMPA-BBB assay; type: ADME
[5] = Stability of compound in serum (unknown origin) assessed as peptide cleavage at 5 uM measured after 24 hrs by MS analysis; type: ADME, cell-free
[6] = molecular target: Amyloid-beta precursor protein (Homo sapiens) (UniProt P05067); assay: Binding affinity to amyloid beta (1 to 42) (unknown origin) assessed as amyloid beta (27 to 42)-adduct formation at 10 uM measured after 24 hrs by ESI-HRMS analysis
[7] = molecular target: Amyloid-beta precursor protein (Homo sapiens) (UniProt P05067); assay: Inhibition of amyloid beta (1 to 42) (unknown origin) aggregation assessed as relative fluorescence unit at 2 uM measured after 24 hrs by thioflavin-T fluorescence assay (reference value: 100%)
[8] = molecular target: Amyloid-beta precursor protein (Homo sapiens) (UniProt P05067); assay: Disaggregation of preformed amyloid beta (1 to 42) (unknown origin) aggregation at 2 uM measured after 24 hrs by ANS dye based fluorescence assay
[9] = molecular target: Amyloid-beta precursor protein (Homo sapiens) (UniProt P05067); assay: Binding affinity to amyloid beta (1 to 42) (unknown origin) assessed as absence of fibrillar assembly at 10 uM measured after 24 hrs by STEM analysis
PC-12 [10] = assay: Neuroprotective activity against amyloid beta 42-induced toxicity in rat PC-12 cells assessed as cell viability at 10 uM measured after 6 hrs by MTT assay (reference value: 74.05%); type: functional; conditions: read-out: Activity
[11] = molecular target: Amyloid-beta precursor protein (Homo sapiens) (UniProt P05067); assay: Inhibition of amyloid beta (1 to 42) (unknown origin) assessed as reduction in peptide aggregation at 1 uM measured after 24 hrs by thioflavin-T fluorescence assay relative to control
Cortical neurone [12] = assay: Neuroprotective activity against amyloid beta 42-induced toxicity in rat primary cortical neurons at 0.1 uM; type: functional, cell-based
PC-12 [13] = assay: Neuroprotective activity against amyloid beta 42-induced toxicity in rat PC-12 cells assessed as cell viability at 0.1 uM measured after 6 hrs by MTT assay (reference value: 73.8%); type: functional; conditions: read-out: Activity
Cortical neurone [14] = assay: Cytotoxicity against rat primary cortical neuron assessed as reduction in cell viability at 20 uM measured after 6 hrs by MTT assay; type: cell-based
[15] = molecular target: Amyloid-beta precursor protein (Homo sapiens) (UniProt P05067); assay: Inhibition of amyloid beta (1 to 42) (unknown origin) aggregation assessed as relative fluorescence unit at 10 uM measured after 24 hrs by thioflavin-T fluorescence assay (reference value: 100%)
[16] = molecular target: Amyloid-beta precursor protein (Homo sapiens) (UniProt P05067); assay: Inhibition of amyloid beta (1 to 42) (unknown origin) assessed as reduction in peptide aggregation at 0.1 uM measured after 24 hrs by thioflavin-T fluorescence assay relative to control
[17] = molecular target: Amyloid-beta precursor protein (Homo sapiens) (UniProt P05067); assay: Binding affinity to amyloid beta (1 to 42) (unknown origin) assessed as absence of fibrillar assembly at 10 uM measured after 24 hrs by HR-TEM analysis
[18] = molecular target: Amyloid-beta precursor protein (Homo sapiens) (UniProt P05067); assay: Inhibition of amyloid beta (1 to 42) (unknown origin) assessed as reduction in peptide aggregation at 10 uM measured after 24 hrs by thioflavin-T fluorescence assay relative to control
[19] = molecular target: Amyloid-beta precursor protein (Homo sapiens) (UniProt P05067); assay: Inhibition of amyloid beta (1 to 42) (unknown origin) assessed as reduction in peptide aggregation at 0.5 to 2 uM measured at 24 hrs interval for […] by thioflavin-T fluorescence assay; conditions: dose 0.5-2 µM
[20] = molecular target: Amyloid-beta precursor protein (Homo sapiens) (UniProt P05067); assay: Inhibition of amyloid beta (1 to 42) (unknown origin) aggregation assessed as protein with random coil conformation at 10 uM measured after 24 hrs by circular dichroism analysis (reference value: 5%); parameters: scale not given: the % may be the effect or the level left
PC-12 [21] = assay: Neuroprotective activity against amyloid beta 42-induced toxicity in rat PC-12 cells assessed as cell viability at 0.5 uM measured after 6 hrs by MTT assay (reference value: 73.8%); type: functional; conditions: read-out: Activity
[22] = molecular target: Amyloid-beta precursor protein (Homo sapiens) (UniProt P05067); assay: Inhibition of amyloid beta (1 to 42) (unknown origin) assessed as reduction in peptide aggregation at 0.5 uM measured after 24 hrs by thioflavin-T fluorescence assay relative to control
[23] = molecular target: Amyloid-beta precursor protein (Homo sapiens) (UniProt P05067); assay: Inhibition of amyloid beta (1 to 42) (unknown origin) aggregation measured after 24 hrs by tyrosine fluorescence assay
[24] = molecular target: Amyloid-beta precursor protein (Homo sapiens) (UniProt P05067); assay: Binding affinity to amyloid beta (1 to 42) (unknown origin) at 10 uM measured after 24 hrs by ESI-HRMS analysis
[25] = molecular target: Amyloid-beta precursor protein (Homo sapiens) (UniProt P05067); assay: Inhibition of amyloid beta (1 to 42) (unknown origin) aggregation at 2 uM measured after 24 hrs by ANS dye based fluorescence assay
[26] = molecular target: Amyloid-beta precursor protein (Homo sapiens) (UniProt P05067); assay: Inhibition of amyloid beta (1 to 42) (unknown origin) aggregation at 2 uM measured after 24 hrs in presence of giant unilamellar vesicles by ANS dye based fluorescence assay
PC-12 [27] = assay: Neuroprotective activity against amyloid beta 42-induced toxicity in rat PC-12 cells assessed as cell viability at 4 uM measured after 6 hrs by MTT assay (reference value: 74.05%); type: functional; conditions: read-out: Activity
[28] = molecular target: Amyloid-beta precursor protein (Homo sapiens) (UniProt P05067); assay: Inhibition of amyloid beta (1 to 42) (unknown origin) aggregation assessed as protein with beta sheet conformation at 10 uM measured after 24 hrs by circular dichroism analysis (reference value: 66.4%); parameters: scale not given: the % may be the effect or the level left
[29] = molecular target: Amyloid-beta precursor protein (Homo sapiens) (UniProt P05067); assay: Inhibition of amyloid beta (1 to 42) (unknown origin) assessed as reduction in peptide aggregation at 4 uM measured after 24 hrs by thioflavin-T fluorescence assay relative to control
[30] = Stability of compound in serum (unknown origin) at 5 uM measured up to 12 hrs by HPLC analysis; type: ADME, cell-free; conditions: read-out: Stabilty
PC-12 [31] = assay: Neuroprotective activity against amyloid beta 42-induced toxicity in rat PC-12 cells assessed as cell viability at 1 uM measured after 6 hrs by MTT assay (reference value: 73.8%); type: functional; conditions: read-out: Activity
[32] = molecular target: Amyloid-beta precursor protein (Homo sapiens) (UniProt P05067); assay: Inhibition of amyloid beta (1 to 42) (unknown origin) aggregation assessed as relative fluorescence unit at 4 uM measured after 24 hrs by thioflavin-T fluorescence assay (reference value: 100%)
[33] = molecular target: Amyloid-beta precursor protein (Homo sapiens) (UniProt P05067); assay: Disaggregation of preformed amyloid beta (1 to 42) (unknown origin) aggregation at 2 uM by thioflavin-T fluorescence assay; conditions: time 24-120 hrs, TDE = time-dependent effect
[34] = molecular target: Amyloid-beta precursor protein (Homo sapiens) (UniProt P05067); assay: Inhibition of amyloid beta (1 to 42) (unknown origin) aggregation assessed as protein with turn conformation at 10 uM measured after 24 hrs by circular dichroism analysis (reference value: 11.6%); parameters: scale not given: the % may be the effect or the level left
[35] = molecular target: Amyloid-beta precursor protein (Homo sapiens) (UniProt P05067); assay: Binding affinity to amyloid beta (1 to 42) (unknown origin) assessed as amyloid beta (2 to 42)-adduct formation at 10 uM measured after 24 hrs by ESI-HRMS analysis
[36] = molecular target: Amyloid-beta precursor protein (Homo sapiens) (UniProt P05067); assay: Binding affinity to amyloid beta (1 to 42) (unknown origin) assessed as amyloid beta (25 to 42)-adduct formation at 10 uM measured after 24 hrs by ESI-HRMS analysis
[37] = molecular target: Amyloid-beta precursor protein (Homo sapiens) (UniProt P05067); assay: Disaggregation of preformed amyloid beta (1 to 42) (unknown origin) aggregation at 1 uM measured at 24 hrs interval for 120 hrs by thioflavin-T fluorescence assay relative to control
[38] = molecular target: Amyloid-beta precursor protein (Homo sapiens) (UniProt P05067); assay: Disaggregation of preformed amyloid beta (1 to 42) (unknown origin) aggregation at 0.5 uM measured at 24 hrs interval for 120 hrs by thioflavin-T fluorescence assay relative to control
[39] = molecular target: Amyloid-beta precursor protein (Homo sapiens) (UniProt P05067); assay: Disaggregation of preformed amyloid beta (1 to 42) (unknown origin) aggregation at 2 uM measured at 24 hrs interval for 120 hrs by thioflavin-T fluorescence assay relative to control

Row | Compound | inhibition [1] | Activity (PC-12 [2]) | viability at 2 µM (PC-12 [3]) | Peff [4] | Stabilty [5] | RFU [7] | Activity [8] | Activity [9] | viability at 10 µM (PC-12 [10]) | inhibition [11] | Activity (Cortical neurone [12]) | viability at 0.1 µM (PC-12 [13]) | Activity (Cortical neurone [14]) | RFU [15] | Activity [17] | inhibition [18] | Activity [20] | viability at 4 µM (PC-12 [27]) | Activity [28] | inhibition [29] | also measured
1 | CC[C@H](C)[C@H](NC(=O)[C@@H]1CC2CCCCC2N1C(=O)[C@@H](N)C(C)C)C(=O)N[C@@H](C)C(=O)O (stereo not given in full) (H-V[Oic(3aξ,7aξ)]IA-OH) | 100% | Non-Toxic | 100% | Permeable | Unstable | 53% | Active | Active | 100% | 74.8% | Active | 84.9% | Non-Toxic | 53.2% | Active | 100% | 60% | 100% | 14.2% | 100% | Activity [6]: Active; inhibition [16]: 61.2%; inhibition [19]: Active; viability at 0.5 µM (PC-12 [21]): 80.5%; inhibition [22]: 68%; inhibition [23]: Active; Activity [24]: Active; inhibition [25]: Active; inhibition [26]: Active; remaining at 12 h, 5 µM [30]: 90%; viability at 1 µM (PC-12 [31]): 92.3%; RFU [32]: 53.3%; Activity [33]: Tde
2 | CC[C@H](C)[C@H](NC(=O)[C@@H](NC(=O)[C@@H](N)Cc1cccc2ccccc12)C(C)C)C(=O)N[C@@H](C)C(=O)O (H-[1Nal]VIA-OH) | 34% | – | 77% | – | – | – | – | inactive | 70.6% | – | – | – | – | – | inactive | 29.1% | 31.6% | 73.2% | 18.7% | 23.8% | Activity [34]: 45.3%
3 | CC[C@H](C)[C@H](NC(=O)[C@@H](NC(=O)[C@@H](N)Cc1ccc(F)cc1)C(C)C)C(=O)N[C@@H](C)C(=O)O (H-[Phe(4-F)]VIA-OH) | 100% | Non-Toxic | 100% | Permeable | Unstable | 53.1% | Active | Active | 100% | 83.1% | Active | 79.3% | Non-Toxic | 57.2% | Active | 91.7% | 97.6% | 100% | 13.6% | 97.5% | Activity [35]: Active; Activity [36]: Active; inhibition [37]: 42.5%; inhibition [16]: 79.9%; inhibition [38]: 32.1%; inhibition [19]: Active; viability at 0.5 µM (PC-12 [21]): 83.1%; inhibition [22]: 81%; inhibition [23]: Active; inhibition [25]: Active; inhibition [26]: Active; remaining at 12 h, 5 µM [30]: 90%; viability at 1 µM (PC-12 [31]): 97.2%; inhibition [39]: 61%; RFU [32]: 54.5%; Activity [33]: Tde
